Laboratory results: article PMC6326523, “A high-throughput screen to identify novel small molecule inhibitors of the Werner Syndrome Helicase-Nuclease (WRN)” (PLoS ONE, 2019)

What was measured:
[1] = target: T1, GST-WRN500-946 helicase fragment (Homo sapiens, UniProt Q14191); assay: Radiometric helicase assay with GST-WRN500-946 fragment (LOPAC hit validation); type: biochemical; conditions: GST-WRN500-946 20 nM; FORKR 0.5 nM; increasing concentrations
T1 construct: made in house

HeLa 1.2.11 cells = assay: HeLa cell proliferation assay (WST-1); type: cell-based, human; conditions: 50 μM, 3-day time course
Protocol: WRN inhibitors were diluted in DMSO to a concentration 100-fold higher than their final concentrations. U2-OS cells in culture were counted, spun down and resuspended to 35,000 cells/mL in DMEM with 10% FBS and Pen/Strep antibiotic. For each cell condition, 15 μL of DMSO or inhibitor was added to 1.5 ml of U2-OS cells in DMEM or DMEM alone. One hundred μL of each cell condition was plated in triplicate on each of four 96-well plates representing days 0–3. Ten μL of WST-1 cell proliferation reagent (Roche) was added to the day 0 plate and readings were taken 2 hr later using a plate reader set to 450 nm. WST-1 cell proliferation reagent was added to plates on days 1–3 and readings were taken after 2 hr incubation. Percent cell proliferation was normalized to cells in the presence of DMSO with the background OD450 of DMEM with each drug subtracted out. […]
Fig 9 Effects of WRN helicase inhibitors on cancer cell proliferation. (A) Cell proliferation of HeLa 1.2.11 cells treated with 50 μM NCGC00029283-03, NCGC00063279-03, NCGC00357377-01 and NSC 617145 (positive control) or vehicle (DMSO) on Day 0 and Day 3 as measured using the WST-1 cell proliferation reagent. […]

T1 sequence (Q14191 500-946): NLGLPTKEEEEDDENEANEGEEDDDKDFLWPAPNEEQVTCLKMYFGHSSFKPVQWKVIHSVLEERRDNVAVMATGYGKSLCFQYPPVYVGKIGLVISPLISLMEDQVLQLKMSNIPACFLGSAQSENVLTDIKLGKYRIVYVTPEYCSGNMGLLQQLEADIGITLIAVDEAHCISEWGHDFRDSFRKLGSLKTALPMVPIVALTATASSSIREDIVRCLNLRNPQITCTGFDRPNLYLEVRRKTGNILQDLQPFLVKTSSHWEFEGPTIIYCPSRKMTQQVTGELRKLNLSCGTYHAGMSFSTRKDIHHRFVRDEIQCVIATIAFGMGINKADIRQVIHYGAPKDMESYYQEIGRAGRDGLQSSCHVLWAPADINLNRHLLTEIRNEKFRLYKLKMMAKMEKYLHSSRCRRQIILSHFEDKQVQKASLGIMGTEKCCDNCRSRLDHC

| Compound | Inhibition of GST-WRN500-946 unwinding of radiolabeled FORKR [1] | Effect on HeLa 1.2.11 cell proliferation (HeLa 1.2.11 cells) |
| --- | --- | --- |
| N#CSc1ccc2oc(C3=NCCN3)cc2c1 [NCGC00015168-04] | inhibition |  |
| COc1cc2nc(N3CCCN(C)CC3)nc(NC3CCN(Cc4ccccc4)CC3)c2cc1OC [NCGC00185850-03] | inhibition |  |
| CC(C)(CN1C(=O)C(Cl)=C(Cl)C1=O)CN1C(=O)C(Cl)=C(Cl)C1=O [NSC 617145, reference compound] |  | very potent inhibition |
